What was measured:
human DβH = molecular target: T1, human DβH (Homo sapiens, UniProt P09172); experiment: DβH activity in SK-N-SH cells (β-hydroxylation of dopamine to noradrenaline); assay type: cell-based; settings: for DβH activity, Mean ± SEM, % of control: compound 5 μM; for inhibition of DβH activity (in words): as listed in Table 1, 5 μM; for IC50 against human DβH activity (in words): concentration-dependent decrease in β-hydroxylation of dopamine
T1 construct: endogenous in cells; host or cells: SK-N-SH cells
T1 sequence (P09172 1-617): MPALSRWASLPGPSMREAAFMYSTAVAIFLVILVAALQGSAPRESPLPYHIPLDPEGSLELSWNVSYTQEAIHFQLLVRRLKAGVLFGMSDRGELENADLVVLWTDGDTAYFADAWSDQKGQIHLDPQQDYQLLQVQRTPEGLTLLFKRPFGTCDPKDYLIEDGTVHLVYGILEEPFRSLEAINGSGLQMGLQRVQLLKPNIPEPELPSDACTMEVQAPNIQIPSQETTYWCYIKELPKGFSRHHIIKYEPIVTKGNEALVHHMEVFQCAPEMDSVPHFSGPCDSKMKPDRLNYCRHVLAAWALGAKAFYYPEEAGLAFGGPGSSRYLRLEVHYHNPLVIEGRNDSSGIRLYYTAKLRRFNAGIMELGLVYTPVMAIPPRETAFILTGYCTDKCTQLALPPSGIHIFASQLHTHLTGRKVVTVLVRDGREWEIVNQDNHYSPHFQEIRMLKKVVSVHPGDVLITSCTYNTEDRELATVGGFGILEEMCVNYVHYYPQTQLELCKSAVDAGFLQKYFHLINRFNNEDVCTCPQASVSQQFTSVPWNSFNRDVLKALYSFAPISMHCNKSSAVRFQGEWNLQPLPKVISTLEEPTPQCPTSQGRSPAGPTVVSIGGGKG

DβH [1] = molecular target: T2, DβH (Mus musculus, UniProt Q64237); experiment: Noradrenaline tissue levels in mouse heart and brain after oral administration; assay type: in vivo
T2 construct: noradrenaline levels in the mouse left ventricle and brain parietal cortex 9 h after oral administration; from tissue; host or cells: mouse left ventricle and brain parietal cortex (in vivo)
T2 sequence (Q64237 1-622): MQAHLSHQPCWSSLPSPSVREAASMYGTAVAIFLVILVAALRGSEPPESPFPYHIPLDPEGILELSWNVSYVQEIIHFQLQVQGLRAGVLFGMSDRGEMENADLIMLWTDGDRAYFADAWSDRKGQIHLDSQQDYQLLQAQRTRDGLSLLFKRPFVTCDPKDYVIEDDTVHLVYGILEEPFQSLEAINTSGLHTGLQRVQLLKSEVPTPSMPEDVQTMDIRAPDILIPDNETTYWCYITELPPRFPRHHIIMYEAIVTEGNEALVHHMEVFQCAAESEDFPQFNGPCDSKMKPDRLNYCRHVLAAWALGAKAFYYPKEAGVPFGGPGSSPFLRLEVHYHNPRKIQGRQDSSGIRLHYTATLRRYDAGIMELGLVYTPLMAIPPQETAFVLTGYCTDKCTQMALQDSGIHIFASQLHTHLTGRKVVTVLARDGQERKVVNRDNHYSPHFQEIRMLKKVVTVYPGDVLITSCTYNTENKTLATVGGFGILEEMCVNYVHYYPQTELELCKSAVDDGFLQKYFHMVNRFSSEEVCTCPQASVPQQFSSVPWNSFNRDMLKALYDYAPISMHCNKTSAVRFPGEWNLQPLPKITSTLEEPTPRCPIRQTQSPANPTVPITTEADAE
Procedure: FIG. 1 is a graph showing the time-dependent decrease of noradrenaline levels in the left ventricle of mice treated orally with 100 mg/kg of 4 or nepicastat 1. Symbols are means of 5 determinations per group; vertical lines indicate S.E.M.
FIG. 2 is two graphs showing noradrenaline levels in the mouse left ventricle and brain parietal cortex 9 h after oral administration of 4 or nepicastat 1. Symbols are means of 5 determinations per group; vertical lines indicate S.E.M.
Time of maximum effect (Tmax) for noradrenaline tissue reduction by both 4 and 1 appears to be at 9 h post-dose (FIG. 1). Thereafter, noradrenaline tissue levels recover, reaching 50% recovery of initial tissue levels at 24 h.
For both 4 and 1, the maximal inhibitory effect was attained at a dose of 100 mg/kg.

DβH [2] = molecular target: T3, DβH (Rattus norvegicus, UniProt Q05754); experiment: Noradrenaline tissue levels in rat heart and brain after oral administration; assay type: in vivo
T3 construct: noradrenaline levels in the rat heart (left atrium and left ventricle) and brain (frontal and parietal cortex); from tissue; host or cells: rat heart (left atrium, left ventricle) and brain (frontal and parietal cortex), in vivo
T3 sequence (Q05754 1-620): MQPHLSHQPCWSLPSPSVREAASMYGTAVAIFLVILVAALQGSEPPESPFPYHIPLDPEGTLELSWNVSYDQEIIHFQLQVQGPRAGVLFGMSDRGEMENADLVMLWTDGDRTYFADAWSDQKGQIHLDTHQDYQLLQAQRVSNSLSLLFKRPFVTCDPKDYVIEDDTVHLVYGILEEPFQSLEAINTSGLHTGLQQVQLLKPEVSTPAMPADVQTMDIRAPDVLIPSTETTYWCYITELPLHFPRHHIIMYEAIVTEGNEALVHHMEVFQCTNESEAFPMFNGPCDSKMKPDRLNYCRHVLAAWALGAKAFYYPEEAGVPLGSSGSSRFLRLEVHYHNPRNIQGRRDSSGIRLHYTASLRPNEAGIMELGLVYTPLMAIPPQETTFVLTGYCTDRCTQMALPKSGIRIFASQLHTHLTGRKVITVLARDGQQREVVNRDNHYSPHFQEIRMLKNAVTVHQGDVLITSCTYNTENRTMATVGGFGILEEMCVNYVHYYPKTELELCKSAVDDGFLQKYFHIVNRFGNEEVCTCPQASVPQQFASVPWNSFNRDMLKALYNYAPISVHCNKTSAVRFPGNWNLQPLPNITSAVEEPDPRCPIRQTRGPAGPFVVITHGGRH
Procedure: FIG. 3 is four graphs showing noradrenaline levels in the rat heart (left atrium and left ventricle) and brain (frontal and parietal cortex) 9 h after the oral administration of 4 or nepicastat 1. Columns are means of 5 determinations per group; vertical lines indicated S.E.M.

[3] = mouse, 9 h after oral administration

| Structure (SMILES) | DβH activity, Mean ± SEM, % of control (human DβH) | inhibition of DβH activity (in words) (human DβH) | also measured |
| --- | --- | --- | --- |
| COc1ccc2c(c1)C[C@@H](n1c(CCN)c[nH]c1=S)CS2.Cl (racemic) [Compound 30, (R,S)-5-(2-aminoethyl)-1-(6-methoxythiochroman-3-yl)-1,3-dihydroimidazole-2-thione hydrochloride] | 99.4 ± 2.8 % of control | – | – |
| Cl.NCCc1c[nH]c(=S)n1[C@H]1CSc2ccc(O)cc2C1 (racemic) [Compound 31, (R,S)-5-(2-aminoethyl)-1-(6-hydroxythiochroman-3-yl)-1,3-dihydroimidazole-2-thione hydrochloride] | 27.3 ± 0.4 % of control | – | – |
| Cl.NCCc1c[nH]c(=S)n1[C@H]1CCc2c(F)cc(F)cc2C1 [Compound 2, (S)-5-(2-aminoethyl)-1-(5,7-difluoro-1,2,3,4-tetrahydronaphthalen-2-yl)-1,3-dihydroimidazole-2-thione hydrochloride] | – | markedly inhibit | IC50 against human DβH activity (in words) (human DβH): low nM range |
| Cl.NCc1c[nH]c(=S)n1[C@H]1COc2c(F)cc(F)cc2C1 [Compound 3, (R)-5-aminomethyl-1-(6,8-difluorochroman-3-yl)-1,3-dihydroimidazole-2-thione hydrochloride] | – | markedly inhibit | IC50 against human DβH activity (in words) (human DβH): low nM range |
| Cl.NCCc1c[nH]c(=S)n1[C@H]1COc2c(F)cc(F)cc2C1 [Compound 4, (R)-5-(2-aminoethyl)-1-(6,8-difluorochroman-3-yl)-1,3-dihydroimidazole-2-thione hydrochloride] | – | markedly inhibit | IC50 against human DβH activity (in words) (human DβH): low nM range; Time of maximum effect (Tmax) for noradrenaline tissue reduction (DβH [1]; mouse heart (left ventricle), 100 mg/kg oral): 9 h; recovery of initial noradrenaline tissue levels (DβH [1]; mouse heart, 100 mg/kg, at 24 h): 50%; duration of action (in words) (DβH [1]; mouse heart, time course at 100 mg/kg): long acting; dose at which maximal inhibitory effect was attained (DβH [1]; mouse left ventricle noradrenaline, 9 h after administration): 100 mg/kg; effect on noradrenaline levels in left ventricle (DβH [1]; [3]): reduced noradrenaline levels in a dose-dependent manner; effect on noradrenaline tissue levels in brain parietal cortex (DβH [1]; [3]): failed to affect; site of DβH inhibition, periphery versus brain (conclusion) (DβH [2]; concluded from mouse and rat studies): exclusively in the periphery, being devoid of inhibitory effects in the brain; dose dependence of effect upon noradrenaline (DβH [2]; rat (data not shown)): dependent on the dose administered; time of maximum effect upon noradrenaline (DβH [2]; rat (data not shown)): 9 h; inhibitory effect upon noradrenaline levels in left atrium and left ventricle (DβH [2]; rat, 100 mg/kg oral, 9 h, compared with 1 (100 mg/kg)): more pronounced than those elicited by 1; effect on noradrenaline tissue levels in brain parietal cortex and brain frontal cortex (DβH [2]; rat, 9 h after oral administration): failed to affect |
| Cl.NCCCc1c[nH]c(=S)n1[C@H]1CCc2c(F)cc(F)cc2C1 [Compound 5, (S)-5-(3-aminopropyl)-1-(5,7-difluoro-1,2,3,4-tetrahydronaphthalen-2-yl)-1,3-dihydroimidazole-2-thione hydrochloride] | – | markedly inhibit | – |
| Cl.NCCc1c[nH]c(=S)n1[C@H]1COc2c(F)cccc2C1 [Compound 6, (R)-5-(2-aminoethyl)-1-(8-fluorochroman-3-yl)-1,3-dihydroimidazole-2-thione hydrochloride] | – | markedly inhibit | – |
| Cl.NCCc1c[nH]c(=S)n1[C@H]1COc2ccc(F)cc2C1 [Compound 7, (R)-5-(2-aminoethyl)-1-(6-fluorochroman-3-yl)-1,3-dihydroimidazole-2-thione hydrochloride] | 8.0 ± 0.1 % of control | markedly inhibit | – |
| Cl.NCCc1c[nH]c(=S)n1[C@H]1COc2cc(F)c(F)cc2C1 [Compound 8, (R)-5-(2-aminoethyl)-1-(6,7-difluorochroman-3-yl)-1,3-dihydroimidazole-2-thione hydrochloride] | – | markedly inhibit | – |
| Cl.NCCc1c[nH]c(=S)n1[C@H]1COc2c(cc(F)c(F)c2F)C1 [Compound 10, (R)-5-(2-aminoethyl)-1-(6,7,8-trifluorochroman-3-yl)-1,3-dihydroimidazole-2-thione hydrochloride] | – | markedly inhibit | – |
| Cl.NCCc1c[nH]c(=S)n1[C@H]1COc2ccccc2C1 [Compound 12, (R)-5-(2-aminoethyl)-1-chroman-3-yl-1,3-dihydroimidazole-2-thione hydrochloride] | 3.0 ± 0.5 % of control | markedly inhibit | – |
| Cl.NCCc1c[nH]c(=S)n1[C@H]1COc2ccc(O)cc2C1 [Compound 16, (R)-5-(2-aminoethyl)-1-(6-hydroxychroman-3-yl)-1,3-dihydroimidazole-2-thione hydrochloride] | 0.0 ± 0.6 % of control | markedly inhibit | – |
| COc1cccc2c1OC[C@H](n1c(CCN)c[nH]c1=S)C2.Cl [Compound 19, (R)-5-(2-aminoethyl)-1-(8-methoxychroman-3-yl)-1,3-dihydroimidazole-2-thione hydrochloride] | – | markedly inhibit | – |
| Cl.NCc1c[nH]c(=S)n1[C@H]1COc2ccccc2C1 [Compound 24, (R)-5-aminomethyl-1-chroman-3-yl-1,3-dihydroimidazole-2-thione hydrochloride] | 0.0 ± 1.9 % of control | markedly inhibit | – |
| Cl.Oc1ccc2c(c1)C[C@@H](n1c(CCNCc3ccccc3)c[nH]c1=S)CO2 [Compound 26, (R)-5-(2-Benzylaminoethyl)-1-(6-hydroxychroman-3-yl)-1,3-dihydroimidazole-2-thione hydrochloride] | – | markedly inhibit | – |
| CNCCc1c[nH]c(=S)n1[C@H]1COc2c(F)cc(F)cc2C1.Cl [Compound 28, (R)-1-(6,8-Difluorochroman-3-yl)-5-(2-methylaminoethyl)-1,3-dihydroimidazole-2-thione hydrochloride] | – | markedly inhibit | – |
| CNCCc1c[nH]c(=S)n1[C@H]1COc2ccccc2C1.Cl [Compound 29, (R)-1-Chroman-3-yl-5-(2-methylaminoethyl)-1,3-dihydroimidazole-2-thione hydrochloride] | – | markedly inhibit | – |
